Assay results reported in patent publication EP4752152A1, “STEROID COMPOUND, AND PREPARATION METHOD THEREFOR AND USE THEREOF” (Cholesgen (Shanghai) Co.Ltd., priority 2023, dated 2025).

Tested on: SREBP pathway
Experiment: SREBP luciferase reporter gene system (SRE-luciferase assay)
Assay type: cell-based, human
Conditions: Huh-7/SRE-luc cells, sterol-deficient medium, 0.01-10 µM
Method: Huh-7/SRE-luc cells were incubated in sterol-deficient medium (5% lipoprotein deficient serum, 2 µM lovastatin, 10 µM mevalonic acid) with corresponding concentrations of compounds for 16 hours. The Huh-7/SRE-luc cells were human hepatoma cell line Huh-7 stably expressing LDLR promotor-luciferase and green fluorescent protein (GFP). These cells were obtained by transfecting Huh-7 with pLDLR-promotor-luciferase and pEGFP-N1 plasmids, followed by screening under G418 antibiotic selection pressure. The Huh-7 cells were purchased from ATCC, the pLDLR-promotor-luciferase plasmid was obtained by molecular cloning methods, and the pEGFP-N1 plasmid was purchased from Addgene.
After compound treatment, the cells were lysed with lysis buffer (E397A, Promega). After the addition of luciferase substrate (E1500, Promega), the activity of SRE-driven luciferase was measured using a BioTek Synergy HTX microplate reader (including but not limited to this type of instrument). The fluorescence intensity of green fluorescent protein (EGFP) was also measured using the above BioTek microplate reader (including but not limited to this type of instrument) and served as an internal control. The ratio of SRE-driven luciferase activity divided by the fluorescence intensity of green fluorescent protein was used as an indicator of SREBP pathway activity. The test data for each test compound were analyzed using Prism software (with the DMSO-treated group as the reference to calculate the compound inhibition rate, fitted using the Prism log(inhibitor) vs. response--Variable slope (four-parameter) model, calculation formula: Y = Bottom + (Top - Bottom)/(1 + 10^((LogIC50 - X) × HillSlope))), to obtain the IC50 parameters of the compounds.
Using the method described in 1.1, the inhibitory effect of the compounds of the present disclosure on the SREBP pathway was tested. The concentration gradient for each compound was designed as 0.01, 0.03, 0.1, 0.3, 1.0, 3.0, and 10 µM, with the vehicle DMSO as the control.

Structure (SMILES) | IC50 (Homo sapiens, Huh-7, 16 h) [µM] | IC50 (16 hours) [µM]
COc1nc(F)ccc1C(C)(O)CCC[C@@H](C)[C@H]1CC[C@H]2[C@H]3[C@H](CC[C@]12C)[C@@]1(C)CC[C@H](O)[C@H](O)[C@@H]1CC3(F)F (stereo partly drawn) [Compound 308, (1R,3aS,3bS,5aR,6R,7S,9aR,9bS,11aR)-4,4-difluoro-1-[(2R)-6-(6-fluoro-2-methoxypyridin-3-yl)-6-hydroxyheptan-2-yl]-9a,11a-dimethylhexadecahydro-1H-cyclopenta[1,2-a]phenanthrene-6,7-diol] | 0.112 | –
COc1nc(F)ccc1[C@H](O)CC[C@@H](C)[C@H]1CC[C@H]2C3=C(F)C[C@H]4[C@@H](O)[C@@H](O)CC[C@]4(C)[C@H]3CC[C@]12C [Compound 340, (1R,3aR,5aR,6R,7S,9aR,9bR,11aR)-4-fluoro-1-[(2R,5R)-5-(6-fluoro-2-methoxypyridin-3-yl)-5-hydroxypentan-2-yl]-9a,11a-dimethyl-2,3,3a,5,5a,6,7,8,9,9a,9b,10,11,11a-tetradecahydro-1H-cyclopenta[1,2-a]phenanthrene-6,7-diol] | 0.108 | –
COc1ccc(F)c(C(O)CCC[C@@H](C)[C@H]2CC[C@H]3C4=C(F)C[C@H]5[C@@H](O)[C@@H](O)CC[C@]5(C)[C@H]4CC[C@]23C)c1 (stereo partly drawn) [Compound 174, (1R,3aR,5aR,6R,7S,9aR,9bR,11aR)-4-fluoro-1-[(2R)-6-(2-fluoro-5-methoxyphenyl)-6-hydroxyhexan-2-yl]-9a,11a-dimethyl-2,3,3a,5,5a,6,7,8,9,9a,9b,10,11,11a-tetradecahydro-1H-cyclopenta[1,2-a]phenanthrene-6,7-diol] | 0.148 | –
C[C@H](CCCC(O)c1ccncc1)[C@H]1CC[C@H]2[C@H]3[C@H](CC[C@]12C)[C@@]1(C)CC[C@H](O)[C@H](O)[C@@H]1CC3(F)F (stereo partly drawn) [Compound 76, (1R,3aS,3bS,5aR,6R,7S,9aR,9bS,11aR)-4,4-difluoro-1-[(2R)-6-hydroxy-6-(pyridin-4-yl)hexan-2-yl]-9a,11a-dimethylhexadecahydro-1H-cyclopenta[1,2-a]phenanthrene-6,7-diol] | 0.9 | –
COc1ccnc(F)c1C(O)CCC[C@@H](C)[C@H]1CC[C@H]2[C@H]3[C@H](CC[C@]12C)[C@@]1(C)CC[C@H](O)[C@H](O)[C@@H]1CC3(F)F (stereo partly drawn) [Compound 149, (1R,3aS,3bS,5aR,6R,7S,9aR,9bS,11aR)-4,4-difluoro-1-[(2R)-6-(2-fluoro-4-methoxypyridin-3-yl)-6-hydroxyhexan-2-yl]-9a,11a-dimethylhexadecahydro-1H-cyclopenta[1,2-a]phenanthrene-6,7-diol] | 0.14 | –
COc1ccnc(C[C@@H](O)CCC[C@@H](C)[C@H]2CC[C@H]3[C@H]4[C@H](CC[C@]23C)[C@@]2(C)CC[C@H](O)[C@H](O)[C@@H]2CC4(F)F)c1 (stereo in doubt) [Compound 304, (1R,3aS,3bS,5aR,6R,7S,9aR,9bS,11aR)-4,4-difluoro-1-[(2R,6S)-6-hydroxy-7-(4-methoxypyridin-2-yl)heptan-2-yl]-9a,11a-dimethylhexadecahydro-1H-cyclopenta[1,2-a]phenanthrene-6,7-diol] | 0.243 | –
COc1nc(C)ccc1C(O)CCC[C@@H](C)[C@H]1CC[C@H]2[C@H]3[C@H](CC[C@]12C)[C@@]1(C)CC[C@H](O)[C@H](O)[C@@H]1CC3(F)F (single isomer, unassigned) [Compound 218, (1R,3aS,3bS,5aR,6R,7S,9aR,9bS,11aR)-4,4-difluoro-1-[(2R,6R)-6-hydroxy-6-(2-methoxy-6-methylpyridin-3-yl)hexan-2-yl]-9a,11a-dimethylhexadecahydro-1H-cyclopenta[1,2-a]phenanthrene-6,7-diol or (1R,3aS,3bS,5aR,6R,7S,9aR,9bS,11aR)-4,4-difluoro-1-[(2R,6S)-6-hydroxy-6-(2-methoxy-6-methylpyridin-3-yl)hexan-2-yl]-9a,11a-dimethylhexadecahydro-1H-cyclopenta[1,2-a]phenanthrene-6,7-diol] | – | 0.141
COc1cc(F)nc(OC)c1[C@H](O)CCC[C@@H](C)[C@H]1CC[C@H]2[C@H]3[C@H](CC[C@]12C)[C@@]1(C)CC[C@H](O)[C@H](O)[C@@H]1CC3(F)F (single isomer, unassigned) [Compound 264] | 0.189 | –
COc1nc(F)cc(F)c1[C@H](O)CCC[C@@H](C)[C@H]1CC[C@H]2[C@H]3[C@H](CC[C@]12C)[C@@]1(C)CC[C@H](O)[C@H](O)[C@@H]1CC3(F)F (single isomer, unassigned) [Compound 256] | 0.099 | –
COc1cc(Cl)ccc1[C@H](O)CCC[C@@H](C)[C@H]1CC[C@H]2C3=C(F)C[C@H]4[C@@H](O)[C@@H](O)CC[C@]4(C)[C@H]3CC[C@]12C [Compound 110, (1R,3aR,5aR,6R,7S,9aR,9bR,11aR)-1-[(2R,6R)-6-(4-chloro-2-methoxyphenyl)-6-hydroxyhexan-2-yl]-4-fluoro-9a,11a-dimethyl-2,3,3a,5,5a,6,7,8,9,9a,9b,10,11,11a-tetradecahydro-1H-cyclopenta[1,2-a]phenanthrene-6,7-diol] | 1.13 | –
COc1ccc(C(O)CCC[C@@H](C)[C@H]2CC[C@H]3[C@H]4[C@H](CC[C@]23C)[C@@]2(C)CC[C@H](O)[C@H](O)[C@@H]2CC4(F)F)c(F)n1 (single isomer, unassigned) [Compound 242, (1R,3aS,3bS,5aR,6R,7S,9aR,9bS,11aR)-4,4-difluoro-1-[(2R,6S)-6-(2-fluoro-6-methoxypyridin-3-yl)-6-hydroxyhexan-2-yl]-9a,11a-dimethylhexadecahydro-1H-cyclopenta[1,2-a]phenanthrene-6,7-diol or (1R,3aS,3bS,5aR,6R,7S,9aR,9bS,11aR)-4,4-difluoro-1-[(2R,6R)-6-(2-fluoro-6-methoxypyridin-3-yl)-6-hydroxyhexan-2-yl]-9a,11a-dimethylhexadecahydro-1H-cyclopenta[1,2-a]phenanthrene-6,7-diol] | – | 0.205
C[C@H](CCCC(O)c1cncc2c1cnn2C)[C@H]1CC[C@H]2[C@H]3[C@H](CC[C@]12C)[C@@]1(C)CC[C@H](O)[C@H](O)[C@@H]1CC3(F)F (single isomer, unassigned) [Compound 288, (1R,3aS,3bS,5aR,6R,7S,9aR,9bS,11aR)-4,4-difluoro-1-[(2R,6R)-6-hydroxy-6-(1-methylpyrazolo[3,4-c]pyridin-4-yl)hexan-2-yl]-9a,11a-dimethylhexadecahydro-1H-cyclopenta[1,2-a]phenanthrene-6,7-diol or (1R,3aS,3bS,5aR,6R,7S,9aR,9bS,11aR)-4,4-difluoro-1-[(2R,6S)-6-hydroxy-6-(1-methylpyrazolo[3,4-c]pyridin-4-yl)hexan-2-yl]-9a,11a-dimethylhexadecahydro-1H-cyclopenta[1,2-a]phenanthrene-6,7-diol] | – | 0.388
C[C@H](CCCC(O)c1cccc(F)c1)[C@H]1CC[C@H]2C3=C(F)C[C@H]4[C@@H](O)[C@@H](O)CC[C@]4(C)[C@H]3CC[C@]12C (stereo partly drawn) [Compound 45, (1R,3aR,5aR,6R,7S,9aR,9bR,11aR)-4-fluoro-1-[(2R)-6-(3-fluorophenyl)-6-hydroxyhexan-2-yl]-9a,11a-dimethyl-2,3,3a,5,5a,6,7,8,9,9a,9b,10,11,11a-tetradecahydro-1H-cyclopenta[1,2-a]phenanthrene-6,7-diol] | 0.198 | –
COc1cccc(C(O)CCC[C@@H](C)[C@H]2CC[C@H]3[C@@H]4CC[C@H]5[C@@H](O)[C@@H](O)CC[C@]5(C)[C@H]4CC[C@]23C)c1 (stereo partly drawn) [Compound 5, 24-[hydroxy(3-methoxyphenyl)methyl]-5α-cholane-3β,4β-diol] | 0.13 | –
C[C@H](CCCC1(O)CC1)[C@H]1CC[C@H]2[C@H]3[C@H](CC[C@]12C)[C@@]1(C)CC[C@H](O)[C@H](O)[C@@H]1CC3(F)F [Compound 93, (1R,3aS,3bS,5aR,6R,7S,9aR,9bS,11aR)-4,4-difluoro-1-[(2R)-5-(hydroxycyclopropyl)pentan-2-yl]-9a,11a-dimethylhexadecahydro-1H-cyclopenta[1,2-a]phenanthrene-6,7-diol] | 0.613 | –
C[C@H](CCCC(O)c1cccc2cnn(C)c12)[C@H]1CC[C@H]2[C@H]3[C@H](CC[C@]12C)[C@@]1(C)CC[C@H](O)[C@H](O)[C@@H]1CC3(F)F (single isomer, unassigned) [Compound 243, (1R,3aS,3bS,5aR,6R,7S,9aR,9bS,11aR)-4,4-difluoro-1-[(2R,6S)-6-hydroxy-6-(1-methylindazol-7-yl)hexan-2-yl]-9a,11a-dimethylhexadecahydro-1H-cyclopenta[1,2-a]phenanthrene-6,7-diol or (1R,3aS,3bS,5aR,6R,7S,9aR,9bS,11aR)-4,4-difluoro-1-[(2R,6R)-6-hydroxy-6-(1-methylindazol-7-yl)hexan-2-yl]-9a,11a-dimethylhexadecahydro-1H-cyclopenta[1,2-a]phenanthrene-6,7-diol] | – | 0.134
